Source: PMC9234962, “Optimization of Peptide Linker-Based Fluorescent Ligands for the Histamine H1 Receptor” (Journal of Medicinal Chemistry, 2022)
Where two headings read alike, the source gives them in different places. Square brackets hold non-standard residues; d marks the D form. Peptide text beside a SMILES is read from it. * marks the point of attachment. X1 = O=C(COc1ccc(/C=C/C2=[N+]3C(=Cc4ccc(-c5cccs5)n4[B-]3(F)F)C=C2)cc1)*; Propanoyl(3-Pip(4-O-2-BnPh)) = O=C(CCN1CCC(Oc2ccccc2Cc2ccccc2)CC1)*; βAla = NCCC(=O)O

How the values were obtained:
Nluc-H3R = target: T1, Nluc-H3R (Homo sapiens, UniProt Q9Y5N1); test: NanoBRET saturation binding assay on Nluc-H3R HEK293T cell homogenates
T1 construct: expressed in transfected cells; host or cells: HEK293T, transient transfection; sonicated cell homogenates
T1 sequence (Q9Y5N1 whole entry): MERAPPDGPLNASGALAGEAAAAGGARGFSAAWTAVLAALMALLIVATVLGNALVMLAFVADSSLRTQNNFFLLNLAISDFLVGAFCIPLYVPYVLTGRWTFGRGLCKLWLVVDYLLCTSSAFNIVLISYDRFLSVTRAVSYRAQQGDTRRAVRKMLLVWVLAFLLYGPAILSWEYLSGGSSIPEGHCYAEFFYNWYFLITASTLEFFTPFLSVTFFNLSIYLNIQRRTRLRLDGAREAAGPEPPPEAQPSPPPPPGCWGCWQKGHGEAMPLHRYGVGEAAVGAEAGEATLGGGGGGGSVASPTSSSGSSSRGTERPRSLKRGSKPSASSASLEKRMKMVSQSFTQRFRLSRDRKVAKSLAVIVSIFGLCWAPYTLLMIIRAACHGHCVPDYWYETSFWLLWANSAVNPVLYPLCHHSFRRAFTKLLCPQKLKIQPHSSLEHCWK
Method: (§1) HEK293T cells were transiently transfected with 2.5 μg of cDNA encoding Nluc-H3R or Nluc-H4R and 2.5 μg of empty pcDEF3 vector using the polyethylenimine method as described previously in Mocking et al.[23] Two days after transfection, cells were collected in phosphate-buffered saline (PBS) and centrifuged at 1900g for 10 min and the cell pellet was stored at −20°C until the day of experiment. The pellet was resuspended in HBSS buffer, and cells were disrupted using a Branson sonifier 250 (Boom bv., Meppel, the Netherlands) prior to use in a NanoBRET binding assay.
For all NanoBRET binding experiments, 10 μM NanoGlo substrate (Promega) was added to each well after the incubation period and fluorescence and luminescence emissions were measured after 5 min.
(§2) Total and non-specific saturation binding curves from NanoBRET saturation binding assay were fitted simultaneously using eq 1: [drawing 4] 1 where Bmax is the maximal specific binding, [B] is the concentration of fluorescent ligand in nM, KD is the equilibrium dissociation constant in nM, M is the slope of the non-specific component, and C is the intercept with the Y axis.

Nluc-H4R = target: T2, Nluc-H4R (Homo sapiens, UniProt Q9H3N8); test: NanoBRET saturation binding assay on Nluc-H4R HEK293T cell homogenates
T2 construct: expressed in transfected cells; host or cells: HEK293T, transient transfection; sonicated cell homogenates
T2 sequence (Q9H3N8 whole entry): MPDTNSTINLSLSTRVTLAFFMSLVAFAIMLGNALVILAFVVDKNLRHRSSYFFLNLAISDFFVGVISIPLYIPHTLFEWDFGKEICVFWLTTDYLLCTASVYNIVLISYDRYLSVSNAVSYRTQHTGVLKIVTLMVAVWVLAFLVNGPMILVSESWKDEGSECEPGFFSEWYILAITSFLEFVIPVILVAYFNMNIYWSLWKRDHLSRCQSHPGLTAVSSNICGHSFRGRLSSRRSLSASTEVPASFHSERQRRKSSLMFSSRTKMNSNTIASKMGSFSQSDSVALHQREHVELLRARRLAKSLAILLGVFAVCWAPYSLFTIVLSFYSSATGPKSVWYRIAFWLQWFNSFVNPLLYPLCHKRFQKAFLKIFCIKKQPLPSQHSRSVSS
Method: as §1
For cell membrane NanoBRET saturation binding experiments, cell homogenates expressing the Nluc-H3R or Nluc-H4R were incubated with the required concentrations of fluorescent ligand in the absence and presence of 10 μM clobenpropit in HBSS for 2 h at 25 °C. For all NanoBRET binding experiments, 10 μM NanoGlo substrate (Promega) was added to each well after the incubation period and fluorescence and luminescence emissions were measured after 5 min.
as §2

YFP-tagged H1R = target: T3, YFP-tagged H1R (Homo sapiens, UniProt P35367); test: confocal imaging of YFP-tagged H1R expressing CHO cells; format: cell-based; details: 1, 5, 10, 25 nM, 30 min, 37 °C, ± 10 μM mepyramine
T3 construct: expressed in transfected cells; host or cells: CHO cells
T3 sequence (P35367 whole entry): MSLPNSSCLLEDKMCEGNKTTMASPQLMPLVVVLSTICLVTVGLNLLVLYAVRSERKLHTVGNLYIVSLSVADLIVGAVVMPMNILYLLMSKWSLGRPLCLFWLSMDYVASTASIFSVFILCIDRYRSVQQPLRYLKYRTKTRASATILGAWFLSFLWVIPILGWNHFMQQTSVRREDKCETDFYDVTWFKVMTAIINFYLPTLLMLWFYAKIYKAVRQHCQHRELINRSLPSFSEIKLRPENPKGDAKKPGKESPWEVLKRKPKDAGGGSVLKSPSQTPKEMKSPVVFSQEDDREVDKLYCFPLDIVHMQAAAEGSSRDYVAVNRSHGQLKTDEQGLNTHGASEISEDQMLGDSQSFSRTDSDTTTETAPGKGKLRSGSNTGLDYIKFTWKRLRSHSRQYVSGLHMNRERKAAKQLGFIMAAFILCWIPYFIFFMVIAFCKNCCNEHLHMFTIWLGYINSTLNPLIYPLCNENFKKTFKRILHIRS
Method: H1R-YFP expressing CHO cells were grown to approximately 80% confluency on an 8-well Labtek chambered coverglass (Nunc Nalgene). On the day of experiment, the cells were washed two times with 200 μL of HBSS and subsequently incubated in the presence or absence of 10 μM mepyramine for 30 min at 37 °C in humidified air with 0% CO2. The required concentration of 31a was added to the wells and incubated for another 30 min at 37 °C. Images were acquired using a Zeiss LSM710 confocal microscope (Carl Zeiss GmbH, Hena, Germany) fitted with a 63× plan-Apochromat NA1.3 Ph3 oil-immersion lens. For YFP, a 488 nm argon laser was used for excitation and emission was detected using a BP505-30 filter. For fluorescent ligand 31a, a 633 nm helium-neon laser was used for excitation and emission was detected using a 650 nm long pass filter. A pinhole of 1 Airy Unit was used, and fixed laser power, gain, and offset for the BODIPY 630/650 containing compounds were kept constant across all experiments.

human H1R = target: T4, human H1R (Homo sapiens, UniProt P35367); test: Ca2+ mobilization assay on human H1R-expressing CHO cells; format: cell-based; details: Gaddum equation, shift in histamine EC25 with 1 μM antagonist
T4 construct: expressed in transfected cells; host or cells: CHO cells
T4 sequence (P35367 whole entry): as above
Method: CHO cells expressing H1R were grown to confluence in black-walled, clear-bottom 96-well plates. On the day of the experiment, media were replaced with 100 μL of HBSS containing […], 2.3 μM Fluo-4AM (Invitrogen), 0.023% Pluronic F-127, 0.5 mM Brilliant Black BN, and 1 μM required fluorescent ligand and the plates incubated for 1 h at 37 °C in the dark. The plates were then placed in the multi-well fluorometric imaging plate reader FlexStation3 (Molecular Devices, Sunnyvale, CA) and HBSS only or HBSS containing the required concentration of histamine was added after 15 s. Fluo-4 fluorescence was measured at 520 nm (excitation at 485 nm) every 1.52 s for 200 s. For each well, the peak maximum–minimum–maximum change in fluorescence value was taken and plotted against concentration of histamine to give a dose–response curve.
Estimated affinity values (pKB) were calculated from the shift in agonist concentration–response curves in the presence of the fluorescent antagonists using the Gaddum equation (7): [drawing 10] 7 where DR (dose ratio) is the ratio of the agonist concentration required to stimulate an identical response in the presence and absence of antagonist, [B]. DR was determined from the EC25 value as there was a decrease in observed maximal efficacy of histamine in the presence of all 10 fluorescent antagonists.

Nluc-H1R [1] = target: T5, Nluc-H1R (Homo sapiens, UniProt P35367); test: NanoBRET saturation binding assay on Nluc-H1R expressing HEK293T cells; design: expressed in transfected cells; details: saturation binding curves, whole HEK293T cells
T5 sequence (P35367 whole entry): as above
Text: as §2

Nluc-H1R [2] = target: T5, Nluc-H1R; test: NanoBRET association kinetics assay on Nluc-H1R HEK293T cells; format: binding; design: expressed in transfected cells
Method: For whole cell NanoBRET association kinetic experiments, 10 μM furimazine was added to each well and incubated at room temperature in the dark for 15 min to allow for stabilization of the luminescence signal. The required concentration of fluorescent ligand in the presence or absence of 10 μM of doxepin was added simultaneously, and the plates were read immediately with each well being read once per min for 90 min.
For the NanoBRET association kinetic experiments, the BRET ratio was determined for each concentration of fluorescent ligand at each time point in the presence or absence of 10 μM of doxepin. Specific binding was calculated by subtracting non-specific binding from total binding.

[3] = cell homogenates, highest concentration 1 μM for 31a, 31k
[4] = cell homogenates, highest concentration 1 μM for 31a, 31k, mean ± SEM, three experiments

What does the source list for `CC(C)[C@H](NC(=O)CCN1CCC(Oc2ccccc2Cc2ccccc2)CC1)C(=O)N[C@@H](CO)C(=O)N[C@@H](CC(N)=O)C(=O)NCCC(=O)N[C@@H](CCCCNC(=O)COc1ccc(/C=C/C2=[N+]3C(=Cc4ccc(-c5cccs5)n4[B-]3(F)F)C=C2)cc1)C(N)=O` [Compound 31a, (S)-N1-(3-(((S)-1-Amino-6-(2-(4-((E)-2-(5,5-difluoro-7-(thiophen-2-yl)-5H-5λ^4,6λ^4-dipyrrolo[1,2-c:2’,1’-f][1,3,2]diazaborinin-3-yl)vinyl)phenoxy)acetamido)-1-oxohexan-2-yl)amino)-3-oxopropyl)-2-((S)-2-((S)-2-(3-(4-(2-benzylphenoxy)piperidin-1-yl)propanamido)-3-methylbutanamido)-3-hydroxypropanamido)succinamide] ({Propanoyl(3-Pip(4-O-2-BnPh))}-VSN[βAla]K(X1)-NH2)?
Kd (Nluc-H3R; [3]): < 1000 nM; Nluc-H3R pKD (Nluc-H3R; [4]): < 6; binding at H3R in saturation assay (in words) (Nluc-H3R; concentrations of up to 1 μM): little to no binding; Kd (Nluc-H4R; [3]): < 1000 nM; Nluc-H4R pKD (Nluc-H4R; [4]): < 6; binding at H4R in saturation assay (in words) (Nluc-H4R; concentrations of up to 1 μM): little to no binding; localization in confocal imaging (YFP-tagged H1R): localized to the plasma membrane of the cells with almost no intracellular uptake; Kb (human H1R; mean ± SEM, four experiments, read-out: pKB (converted)): 2.75 nM; Kb (human H1R; read-out: KB (converted)): 3 nM; Kd (Nluc-H1R [1]): 4 nM; pKD (Nluc-H1R [1]; non-specific with 10 μM mepyramine, mean ± SEM): 8.40 ± 0.08; Kd (Nluc-H1R [2]; kinetic pKD, mean ± SEM, read-out: pKD determined from kon and koff (converted)): 17.8 nM; residence time (Nluc-H1R [2]; read-out: mean residence times (MRT)): > 60 min; kon (Nluc-H1R [2]; real-time NanoBRET, room temperature, 90 min, mean ± SEM): 14000 M⁻¹ s⁻¹; MRT (mean residence time, 1/koff) (Nluc-H1R [2]; real-time NanoBRET, mean ± SEM): 1.26 ± 0.17 h; koff (Nluc-H1R [2]; real-time NanoBRET, mean ± SEM): 0.000233 s⁻¹
